In patent US9751881B2, “Inhibitors of the renal outer medullary potassium channel” (Merck Sharp & Dohme Corp., priority 2013, dated 2017) one finds IC50 data, which are given here for 19 compounds.

Structures can show the parent of a compound that is named as a salt.

In this assay the target is hROMK (hKir1.1) (Homo sapiens (Human), UniProt P48048). The assay is described as follows: Thallium Flux Assay (ROMK channel functional thallium flux, FLIPR-Tetra). The assay is classed as cell-based. Particulars: HEK293 cells stably expressing hROMK (hKir1.1); unit not given in Table 4 (IC50 potencies less than 1 μM); read-out: ROMK TI IC50. The method in brief: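 HEK293 cells stably expressing hROMK, FluxOR dye-loaded 90 min, then compound 30 min at room temperature. Normalised to 3 μM reference ROMK inhibitor as % fluorescence change.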
Chain of hROMK (hKir1.1) (P48048 whole entry): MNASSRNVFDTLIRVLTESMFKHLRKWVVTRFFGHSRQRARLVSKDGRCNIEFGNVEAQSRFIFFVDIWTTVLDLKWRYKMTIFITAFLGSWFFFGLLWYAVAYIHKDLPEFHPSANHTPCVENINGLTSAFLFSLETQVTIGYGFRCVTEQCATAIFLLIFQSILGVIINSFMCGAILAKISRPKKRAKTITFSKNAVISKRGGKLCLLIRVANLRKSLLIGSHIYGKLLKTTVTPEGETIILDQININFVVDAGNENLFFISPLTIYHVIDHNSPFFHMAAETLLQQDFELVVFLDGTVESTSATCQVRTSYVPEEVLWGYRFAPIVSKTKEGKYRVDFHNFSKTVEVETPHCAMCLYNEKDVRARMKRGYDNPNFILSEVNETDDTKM
For `Cc1c([C@@H](O)CN2CCC3(CC2)CCN(c2ccnc(C#N)c2)C3)ccc2c1COC2=O` [Example 60, (R)-4-(8-(2-Hydroxy-2-(4-methyl-1-oxo-1,3-dihydroisobenzofuran-5-yl)ethyl)-2,8-diazaspiro[4.5]decan-2-yl)picolinonitrile], the half-maximal inhibitory concentration (IC50) was 54.4 nM.

As to `Cc1c([C@@H](O)CN2CCC3(CCCN(c4ccc(S(C)(=O)=O)cn4)C3)CC2)ccc2c1COC2=O` [Example 61, (R)-5-(1-hydroxy-2-(2-(5-(methylsulfonyl)pyridin-2-yl)-2,9-diazaspiro[5.5]undecan-9-yl)ethyl)-4-methylisobenzofuran-1(3H)-one], the IC50 came out at 56 nM.

Consider `Cc1c([C@@H](O)CN2CCC3(CC2)CCN(c2nnc(S(C)(=O)=O)s2)C3)ccc2c1COC2=O` [Example 62, 5-[(1R)-1-hydroxy-2-{2-[5-(methylsulfonyl)-1,3,4-thiadiazol-2-yl]-2,8-diazaspiro[4.5]dec-8-yl}ethyl]-4-methyl-2-benzofuran-1(3H)-one hydrochloride], for which the IC50 was 210 nM.

Take `CCS(=O)(=O)c1cnc(N2CCC3(CCN(C[C@H](O)c4ccc5c(c4C)COC5=O)CC3)C2)cn1` [Example 63, 5-[(1R)-2-{2-[5-(Ethylsulfonyl)pyrazin-2-yl]-2,8-diazaspiro[4.5]dec-8-yl}-1-hydroxyethyl]-4-methyl-2-benzofuran-1(3H)-one hydrochloride]: the IC50 is 83.2 nM.

For `Cc1c([C@@H](O)CN2CCC3(CCN(c4ccc(S(C)(=O)=O)cn4)CC3)C2)ccc2c1COC2=O` [Example 64, 5-[(1R)-1-Hydroxy-2-{8-[5-(methylsulfonyl)pyridin-2-yl]-2,8-diazaspiro[4.5]dec-2-yl}ethyl]-4-methyl-2-benzofuran-1(3H)-one hydrochloride], the IC50 came to 272 nM.

For `Cc1c([C@@H](O)CN2CCC3(CCN(c4cnc(S(C)(=O)=O)cn4)CC3)C2)ccc2c1COC2=O` [Example 65, 5-[(1R)-1-Hydroxy-2-{8-[5-(methylsulfonyl)pyrazin-2-yl]-2,8-diazaspiro[4.5]dec-2-yl}ethyl]-4-methyl-2-benzofuran-1(3H)-one hydrochloride], the IC50 worked out at 99.8 nM.

On to `Cc1c([C@@H](O)CN2CCC3(CC2)CC(=O)N(c2ccc4c(c2)CCS4(=O)=O)C3)ccc2c1COC2=O` [Example 66, 2-(1,1-Dioxido-2,3-dihydro-1-benzothiophen-5-yl)-8-[(2R)-2-hydroxy-2-(4-methyl-1-oxo-1,3-dihydro-2-benzofuran-5-yl)ethyl]-2,8-diazaspiro[4.5]decan-3-one hydrochloride], for which the IC50 is 101 nM.

Consider `Cc1c([C@@H](O)CN2CCC3(CC2)CC(=O)N(c2ccc(S(C)(=O)=O)c(F)c2)C3)ccc2c1COC2=O` [Example 67, 2-[3-Fluoro-4-(methylsulfonyl)phenyl]-8-[(2R)-2-hydroxy-2-(4-methyl-1-oxo-1,3-dihydro-2-benzofuran-5-yl)ethyl]-2,8-diazaspiro[4.5]decan-3-one hydrochloride], for which the IC50 is 68 nM.

As for `CCS(=O)(=O)c1cnc(N2CC3(CCN(C[C@H](O)c4ccc5c(c4C)COC5=O)CC3)CC2=O)cn1` [Example 68, 2-[5-(Ethylsulfonyl)pyrazin-2-yl]-8-[(2R)-2-hydroxy-2-(4-methyl-1-oxo-1,3-dihydro-2-benzofuran-5-yl)ethyl]-2,8-diazaspiro[4.5]decan-3-one hydrochloride], the half-maximal inhibitory concentration (IC50) amounted to 127 nM.

As for `Cc1c([C@@H](O)CN2CCC3(CC2)CC(=O)N(c2ccc(-n4cnnn4)c(F)c2)C3)ccc2c1COC2=O` [Example 69, 2-[3-Fluoro-4-(1H-tetrazol-1-yl)phenyl]-8-[(2R)-2-hydroxy-2-(4-methyl-1-oxo-1,3-dihydro-2-benzofuran-5-yl)ethyl]-2,8-diazaspiro[4.5]decan-3-one hydrochloride], the IC50 came out at 173 nM.

With `Cc1c([C@@H](O)CN2CCC3(CC2)CC(=O)N(c2ccc(S(=O)(=O)C4CC4)cc2)C3)ccc2c1COC2=O` [Example 70, 2-[4-(Cyclopropylsulfonyl)phenyl]-8-[(2R)-2-hydroxy-2-(4-methyl-1-oxo-1,3-dihydro-2-benzofuran-5-yl)ethyl]-2,8-diazaspiro[4.5]decan-3-one hydrochloride], the IC50 came to 248 nM.

Regarding `Cc1c([C@@H](O)CN2CCC3(CC2)CC(=O)N(c2nnc(S(C)(=O)=O)s2)C3)ccc2c1COC2=O` [Example 71, 8-[(2R)-2-Hydroxy-2-(4-methyl-1-oxo-1,3-dihydro-2-benzofuran-5-yl)ethyl]-2-[5-(methylsulfonyl)-1,3,4-thiadiazol-2-yl]-2,8-diazaspiro[4.5]decan-3-one hydrochloride], the IC50 amounted to 142 nM.

With `Cc1c([C@@H](O)CN2CCC3(CC2)CC(=O)N(c2ccc(-n4cnnn4)nc2)C3)ccc2c1COC2=O` [Example 72, 8-[(2R)-2-Hydroxy-2-(4-methyl-1-oxo-1,3-dihydro-2-benzofuran-5-yl)ethyl]-2-[6-(1H-tetrazol-1-yl)pyridin-3-yl]-2,8-diazaspiro[4.5]decan-3-one hydrochloride], the IC50 is 100 nM.

Take `Cc1nc(N2CC3(CCN(C[C@H](O)c4ccc5c(c4C)COC5=O)CC3)CC2=O)ccc1-n1cnnn1` [Example 73, 8-[(2R)-2-Hydroxy-2-(4-methyl-1-oxo-1,3-dihydro-2-benzofuran-5-yl)ethyl]-2-[6-methyl-5-(1H-tetrazol-1-yl)pyridin-2-yl]-2,8-diazaspiro[4.5]decan-3-one hydrochloride]: the IC50 turned out to be 359 nM.

With `Cc1c([C@@H](O)CN2CCC3(CC2)CC(=O)N(c2ccc(S(C)(=O)=O)cc2)C3)ccc2c1COC2=O` [Example 74, 8-[(2R)-2-Hydroxy-2-(4-methyl-1-oxo-1,3-dihydro-2-benzofuran-5-yl)ethyl]-2-[4-(methylsulfonyl)phenyl]-2,8-diazaspiro[4.5]decan-3-one hydrochloride], the IC50 was determined as 82.2 nM.

As to `Cc1c([C@@H](O)CN2CCC3(CC2)CCN(c2ccc(S(C)(=O)=O)cc2)C3=O)ccc2c1COC2=O` [Example 75, 8-[(2R)-2Hydroxy-2-(4-methyl-1-oxo-1,3-dihydro-2-benzofuran-5-yl)ethyl]-2-[4-(methylsulfonyl)phenyl]-2,8-diazaspiro[4.5]decan-1-one hydrochloride], the IC50 stood at 85.2 nM.

Regarding `Cc1c([C@@H](O)CN2CCC3(CC2)CCN(c2nnc(S(C)(=O)=O)s2)C3=O)ccc2c1COC2=O` [Example 76, 8-[(2R)-2-Hydroxy-2-(4-methyl-1-oxo-1,3-dihydro-2-benzofuran-5-yl)ethyl]-2-[5-(methylsulfonyl)-1,3,4-thiadiazol-2-yl]-2,8-diazaspiro[4.5]decan-1-one hydrochloride], the IC50 came out at 100 nM.

For the compound `CN[C@@H](CN1CCC2(CC1)CCN(c1ccc(C#N)cn1)C2)c1ccc2c(c1C)COC2=O` [Example 77, (R)-6-(8-(2-(4-methyl-1-oxo-1,3-dihydroisobenzofuran-5-yl)-2-(methylamino)ethyl)-2,8-diazaspiro[4.5]decan-2-yl)nicotinonitrile], the IC50 is 61.3 nM.

For the compound `C=CCN[C@@H](CN1CCC2(CC1)CCN(c1ccc(C#N)cn1)C2)c1ccc2c(c1C)COC2=O` [Example 78, (R)-6-(8-(2-(allylamino)-2-(4-methyl-1-oxo-1,3-dihydroisobenzofuran-5-yl)ethyl)-2,8-diazaspiro[4.5]decan-2-yl)nicotinonitrile], the IC50 is 70.6 nM.

A word on the IC50: it is the concentration at which inhibition is half-maximal.
